# Laboratory results as given in patent US9149038B2, “4-amino-6-(heterocyclic)picolinates and 6-amino-2-(heterocyclic)pyrimidine-4-carboxylates and their use as herbicides” (Dow AgroSciences LLC, priority 2013, dated 2015).
# Like-named read-outs stand apart in the source and are kept apart here.
# Test system: Direct Seeded Rice and weed species
# Assay: Postemergence herbicidal activity in direct seeded rice, visual rating after 20-22 days and probit GR20/GR50/GR80/GR90 (Table 14)
# Type: in vivo
# Details: for pest or weed control at 17.5 g/ha / pest or weed control at 35 g/ha / pest or weed control at 70 g/ha: post-emergence, 504 h, postemergence; for pest or weed control at 17.5 g/ha: 17.5 g ai/ha; for pest or weed control at 35 g/ha: 35 g ai/ha; for pest or weed control at 70 g/ha: 70 g ai/ha
# How it was run: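 Visual injury scores (0 = none, 100 = complete kill) taken 20-22 days after treatment and fitted by probit analysis over several doses to give GR20/GR50/GR80/GR90. Plants at 2nd–3rd true leaf in pH about 8.1 loam–sand mix received track-sprayer applications of 187 L/ha containing 1.25% (v/v) crop oil concentrate.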
# [1] = BRAPP (broadleaf signalgrass, Brachiaria platyphylla), read-out: Visual Growth Reduction (%) 21 Days After Application BRAPP
# [2] = CYPDI (small-flower flatsedge, Cyperus difformis), read-out: Visual Growth Reduction (%) 21 Days After Application CYPDI
# [3] = CYPES (yellow nutsedge, Cyperus esculentus), read-out: Visual Growth Reduction (%) 21 Days After Application CYPES
# [4] = CYPIR (rice flatsedge, Cyperus iria), read-out: Visual Growth Reduction (%) 21 Days After Application CYPIR
# [5] = DIGSA (large crabgrass, Digitaria sanguinalis), read-out: Visual Growth Reduction (%) 21 Days After Application DIGSA
# [6] = ECHCG (barnyardgrass, Echinochloa crus-galli), read-out: Visual Growth Reduction (%) 21 Days After Application ECHCG
# [7] = ECHCO (junglerice, Echinochloa colonum), read-out: Visual Growth Reduction (%) 21 Days After Application ECHCO
# [8] = LEFCH (Chinese sprangletop, Leptochloa chinensis), read-out: Visual Growth Reduction (%) 21 Days After Application LEFCH
# [9] = ORYSJ (Oryza sativa, rice crop), read-out: Visual Growth Reduction (%) 21 Days After Application ORYSJ
# [10] = ORYSK (Oryza sativa, rice crop), read-out: Visual Growth Reduction (%) 21 Days After Application ORYSK
# [11] = SCPJU (Japanese bulrush, Schoenoplectus juncoides Roxb.), read-out: Visual Growth Reduction (%) 21 Days After Application SCPJU
# [12] = SEBEX (hemp sesbania, Sesbania exaltata), read-out: Visual Growth Reduction (%) 21 Days After Application SEBEX
compound,measurement,setting,value
COc1c(N)nc(-c2ccc3c(c2F)OC(F)(F)O3)nc1C(=O)O [Compound 66],GR50 BRAPP,"BRAPP (Brachiaria platyphylla), probit analysis, dose for 50 percent growth reduction",2 g ai/ha
same,GR80 BRAPP,"BRAPP (Brachiaria platyphylla), probit analysis, dose for 80 percent growth reduction",7 g ai/ha
same,GR90 BRAPP,"BRAPP (Brachiaria platyphylla), probit analysis, dose for 90 percent growth reduction",16 g ai/ha
same,GR50 CYPDI,"CYPDI (Cyperus difformis), probit analysis, dose for 50 percent growth reduction",0.42 g ai/ha
same,GR80 CYPDI,"CYPDI (Cyperus difformis), probit analysis, dose for 80 percent growth reduction",3 g ai/ha
same,GR90 CYPDI,"CYPDI (Cyperus difformis), probit analysis, dose for 90 percent growth reduction",6 g ai/ha
same,GR50 CYPES,"CYPES (Cyperus esculentus), probit analysis, dose for 50 percent growth reduction",0.0001 g ai/ha
same,GR80 CYPES,"CYPES (Cyperus esculentus), probit analysis, dose for 80 percent growth reduction",0.0001 g ai/ha
same,GR90 CYPES,"CYPES (Cyperus esculentus), probit analysis, dose for 90 percent growth reduction",0.0001 g ai/ha
same,GR50 CYPIR,"CYPIR (Cyperus iria), probit analysis, dose for 50 percent growth reduction",9 g ai/ha
same,GR80 CYPIR,"CYPIR (Cyperus iria), probit analysis, dose for 80 percent growth reduction",15 g ai/ha
same,GR90 CYPIR,"CYPIR (Cyperus iria), probit analysis, dose for 90 percent growth reduction",19 g ai/ha
same,GR50 DIGSA,"DIGSA (Digitaria sanguinalis), probit analysis, dose for 50 percent growth reduction",2 g ai/ha
same,GR80 DIGSA,"DIGSA (Digitaria sanguinalis), probit analysis, dose for 80 percent growth reduction",21 g ai/ha
same,GR90 DIGSA,"DIGSA (Digitaria sanguinalis), probit analysis, dose for 90 percent growth reduction",77 g ai/ha
same,GR50 ECHCG,"ECHCG (Echinochloa crus-galli), probit analysis, dose for 50 percent growth reduction",3 g ai/ha
same,GR80 ECHCG,"ECHCG (Echinochloa crus-galli), probit analysis, dose for 80 percent growth reduction",7 g ai/ha
same,GR90 ECHCG,"ECHCG (Echinochloa crus-galli), probit analysis, dose for 90 percent growth reduction",12 g ai/ha
same,GR50 ECHCO,"ECHCO (Echinochloa colonum), probit analysis, dose for 50 percent growth reduction",2 g ai/ha
same,GR80 ECHCO,"ECHCO (Echinochloa colonum), probit analysis, dose for 80 percent growth reduction",6 g ai/ha
same,GR90 ECHCO,"ECHCO (Echinochloa colonum), probit analysis, dose for 90 percent growth reduction",11 g ai/ha
same,GR50 LEFCH,"LEFCH (Leptochloa chinensis), probit analysis, dose for 50 percent growth reduction",105 g ai/ha
same,GR80 LEFCH,"LEFCH (Leptochloa chinensis), probit analysis, dose for 80 percent growth reduction",227 g ai/ha
same,GR90 LEFCH,"LEFCH (Leptochloa chinensis), probit analysis, dose for 90 percent growth reduction",339 g ai/ha
same,GR20 ORYSJ,"ORYSJ (Oryza sativa, rice crop), probit analysis, dose for 20 percent growth reduction",2 g ai/ha
same,GR20 ORYSK,"ORYSK (Oryza sativa, rice crop), probit analysis, dose for 20 percent growth reduction",11 g ai/ha
same,GR50 SCPJU,"SCPJU (Schoenoplectus juncoides Roxb.), probit analysis, dose for 50 percent growth reduction",0.0001 g ai/ha
same,GR80 SCPJU,"SCPJU (Schoenoplectus juncoides Roxb.), probit analysis, dose for 80 percent growth reduction",0.0001 g ai/ha
same,GR90 SCPJU,"SCPJU (Schoenoplectus juncoides Roxb.), probit analysis, dose for 90 percent growth reduction",0.0001 g ai/ha
same,GR50 SEBEX,"SEBEX (Sesbania exaltata), probit analysis, dose for 50 percent growth reduction",8 g ai/ha
same,GR80 SEBEX,"SEBEX (Sesbania exaltata), probit analysis, dose for 80 percent growth reduction",19 g ai/ha
same,GR90 SEBEX,"SEBEX (Sesbania exaltata), probit analysis, dose for 90 percent growth reduction",28 g ai/ha
same,pest or weed control at 17.5 g/ha,[1],85 to 94%
same,pest or weed control at 35 g/ha,[1],95 to 100%
same,pest or weed control at 70 g/ha,[1],95 to 100%
same,pest or weed control at 17.5 g/ha,[2],95 to 100%
same,pest or weed control at 35 g/ha,[2],95 to 100%
same,pest or weed control at 70 g/ha,[2],95 to 100%
same,pest or weed control at 17.5 g/ha,[3],95 to 100%
same,pest or weed control at 35 g/ha,[3],95 to 100%
same,pest or weed control at 70 g/ha,[3],95 to 100%
same,pest or weed control at 17.5 g/ha,[4],95 to 100%
same,pest or weed control at 35 g/ha,[4],95 to 100%
same,pest or weed control at 70 g/ha,[4],95 to 100%
same,pest or weed control at 17.5 g/ha,[5],75 to 84%
same,pest or weed control at 35 g/ha,[5],85 to 94%
same,pest or weed control at 70 g/ha,[5],85 to 94%
same,pest or weed control at 17.5 g/ha,[6],95 to 100%
same,pest or weed control at 35 g/ha,[6],95 to 100%
same,pest or weed control at 70 g/ha,[6],95 to 100%
same,pest or weed control at 17.5 g/ha,[7],95 to 100%
same,pest or weed control at 35 g/ha,[7],95 to 100%
same,pest or weed control at 70 g/ha,[7],95 to 100%
same,pest or weed control at 17.5 g/ha,[8],0 to 29%
same,pest or weed control at 35 g/ha,[8],0 to 29%
same,pest or weed control at 70 g/ha,[8],30 to 44%
same,pest or weed control at 17.5 g/ha,[9],60 to 74%
same,pest or weed control at 35 g/ha,[9],85 to 94%
same,pest or weed control at 70 g/ha,[9],85 to 94%
same,pest or weed control at 17.5 g/ha,[10],30 to 44%
same,pest or weed control at 35 g/ha,[10],60 to 74%
same,pest or weed control at 70 g/ha,[10],85 to 94%
same,pest or weed control at 17.5 g/ha,[11],95 to 100%
same,pest or weed control at 35 g/ha,[11],95 to 100%
same,pest or weed control at 70 g/ha,[11],95 to 100%
same,pest or weed control at 17.5 g/ha,[12],60 to 74%
same,pest or weed control at 35 g/ha,[12],95 to 100%
same,pest or weed control at 70 g/ha,[12],95 to 100%
